The test system of one series is alkaline phosphatase. The series is described as follows: Control: alkaline phosphatase activity in solution. In kind it is biochemical.
The next series relates to EGF receptor. The series is described as follows: EGF receptor phosphorylation in COS7 cells. The class given is cell-based. The following applies: COS7 cells stimulated with EGF.
In the next series the test system is PC3 cells. Put plainly: PC3 cell retraction assay. The class given is cell-based. As to the method: FIGS. 9A-9G. A. PC3 cells pretreated for 15 min with the indicated concentrations of compound 1 or compound 2 were stimulated with 0.5 μg/mL ephrin-A1 Fc (+) or Fc as a control (−) for 20 min in the continued presence of the compounds. EphA2 immunoprecipitates were probed with anti-phosphotyrosine antibody (PTyr) and reprobed for EphA2. C indicates immunoprecipitations performed with control antibodies. B. Histogram showing the levels of EphA2 phosphorylation normalized to the amount of immunoprecipitated EphA2. Error bars indicate standard error from 3 experiments. Receptor phosphorylation levels were compared with those in the ephrin-stimulated cells by one-way ANOVA and Dunnett's post test. *P<0.05 and *P<0.01. C. PC3 cells stimulated with compound 1 as in (A) were stained with rhodamine-phalloidin to label actin filaments and DAPI to label nuclei. DMSO was used as a control (0 μM). D. Histogram showing the mean area of the cells normalized to the value obtained for the Fc stimulated cells. E. Histogram showing the mean percentage of retracting cells. Cells having rounded shape and area less than 20% of the mean value obtained for the Fc stimulated cells were scored as retracting. Error bars in D and E indicate standard error from 3 experiments. F-H. The same experiments as in (C-E) were performed using compound 2. The areas occupied by the cells and the percentage of cell retraction under different conditions were compared to those in the Fc control condition by one-way ANOVA and Dunnett's post test. *P<0.05 and **P<0.01. Scale bars in (C) and (F)=50 μm.
PC3 Cell Retraction Assay—PC3 cells were plated on glass coverslips and grown in RPMI 1640 medium (Mediatech, Inc, Herndon, Va.) with 10% FBS and Pen/Strep. After 17 hours the cells were starved for 3 hours in 0.5% FBS in DMEM and then incubated for 40 min with the compounds or DMSO, before stimulation for 10 min with 0.5 μg/mL of ephrin-A1 Fc or Fc as a control. The cells were fixed in 4% formaldehyde in PBS, permeabilized in 0.5% Triton X-100 in TBS and stained with rhodamine-conjugated phalloidin (Invitrogen, Carlsbad, Calif.) and DAPI. Cells were photographed under a fluorescence microscope and cell area was measured in a blinded manner using ImageJ software. Cells having rounded shape and area equal or below 20% of the area of Fc control-treated cells were considered as retracting.

For a further series, the target named is EphA4 (Mus musculus, UniProt Q03137). Put plainly: ELISA, EphA4 AP binding to immobilized ephrin Fc fusion proteins. Further details: made in house; conditioned culture medium used. On the procedure: FIGS. 3A and 3B. A. Ephrin-A5 AP binding to immobilized EphA receptor Fc fusion proteins and ephrin-B2 AP binding to immobilized EphB receptor Fc fusion proteins were measured in the presence of the indicated concentrations of compounds 1 and 2. […] Error bars indicate standard error from 3 measurements. B. IC50 values for inhibition of EphA4 AP and EphA2 AP binding to the indicated immobilized ephrins by compounds 1 and 2.
ELISA Assays and K, Determination—Protein A-coated wells (Pierce Biotecnology, Rockford, Ill.) were used to immobilize ephrin Fc fusion proteins (R&D Systems, Minneapolis, Minn.). Compounds at different concentrations were incubated with EphA4 AP (Cheng and Flanagan, (1994) Cell 79(1), 157-168) or EphA2 AP (Koolpe et al. (2002) J Biol Chem 277(49), 46974-46979) for 3 hours. Alternatively, Eph receptor Fc fusion proteins were immobilized on protein A-coated wells and ephrin-A5 AP (Menzel et al. (2001) Developmental Biology 230(1), 74-88) or ephrin-B2 AP (GeneHunter, Nashville, Tenn.) were added with the compounds. The amount of bound AP-fusion protein was quantified using pNPP as the substrate. Alkaline phosphatase activity from wells with Fc only was subtracted as background. […]
Background: An ELISA detects its analyte on a solid surface through an enzyme-linked reagent.

Sequence of EphA4 (Q03137 20-547 limits assumed): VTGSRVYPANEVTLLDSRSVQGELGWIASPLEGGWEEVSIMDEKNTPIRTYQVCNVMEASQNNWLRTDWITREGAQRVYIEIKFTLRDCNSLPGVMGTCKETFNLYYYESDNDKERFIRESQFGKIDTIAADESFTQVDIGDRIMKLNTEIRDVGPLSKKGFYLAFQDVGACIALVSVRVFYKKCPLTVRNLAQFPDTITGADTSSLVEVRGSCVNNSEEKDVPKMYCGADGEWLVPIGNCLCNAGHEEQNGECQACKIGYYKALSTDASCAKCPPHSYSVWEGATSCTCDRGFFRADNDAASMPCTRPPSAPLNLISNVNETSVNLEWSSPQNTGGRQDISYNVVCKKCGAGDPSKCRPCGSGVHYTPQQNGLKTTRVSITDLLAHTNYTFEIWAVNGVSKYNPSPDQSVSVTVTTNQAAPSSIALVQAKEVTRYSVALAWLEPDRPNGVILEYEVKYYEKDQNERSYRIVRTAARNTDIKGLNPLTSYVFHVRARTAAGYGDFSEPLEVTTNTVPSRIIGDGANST

With `Cc1ccc(C)n1-c1ccc(C(=O)O)c(O)c1` [compound 1, 4-(2,5-dimethyl-pyrrol-1-yl)-2-hydroxy-benzoic acid], the “inhibition of alkaline phosphatase activity (control)” value in the series on alkaline phosphatase is listed as “does not inhibit”. Moreover, in the series with EGF receptor, the “phosphorylation of the EGF receptor” value is reported as “did not inhibit”. For the same compound, in the series with PC3 cells, the “cell morphology in the absence of ephrin treatment” value is “did not affect”, the “decrease in cell spreading caused by ephrin-A1 Fc” value is given as “blocked” and the “increase in the percentage of rounded cells caused by ephrin-A1 Fc” value is reported as “blocked”. For the same compound, the “inhibition of binding of different ephrin ligands to EphA4” value on EphA4 was “inhibited binding of most ephrin ligands to EphA4, except for ephrin-A4 and ephrin-B2”.
Turning to `Cc1ccc(C)n1-c1ccc(O)c(C(=O)O)c1` [compound 2, 5-(2,5 dimethyl-pyrrol-1-yl)-2-hydroxy-benzoic acid], the “phosphorylation of the EGF receptor” value in the series on EGF receptor was “did not inhibit”. Further, in the series with PC3 cells, the “cell morphology in the absence of ephrin treatment” value was “did not affect”, the “decrease in cell spreading caused by ephrin-A1 Fc” value is “blocked” and the “increase in the percentage of rounded cells caused by ephrin-A1 Fc” value was “blocked”. Moreover, at EphA4, the “inhibition of binding of different ephrin ligands to EphA4” value was “inhibited binding of most ephrin ligands to EphA4, except for ephrin-A4 and ephrin-B2”.

For the origin of these results see patent US20100256214A1, “EPH RECEPTOR LIGANDS AND METHODS OF USE” (Burnham Institute for Medical Research, priority 2009, published 2010).
